According to US7314959B2, “Amino thiol compounds and compositions for use in conjunction with cancer therapy” (Wisconsin Alumni Research Foundation, priority 2003, dated 2008):
Entries after “also recorded” stand apart in the source; their conditions may differ.

Key:
[1] = test system: hamster cheek pouch mucosa; test: Radiation-induced mucositis, hamster cheek pouch model; type: in vivo; settings: 50 mM or 500 mM topical for 30 min before 30 Gy (17.5 min) irradiation
Excerpt: The model for radiation-induced oral mucositis was developed for the purpose of screening and identifying effective polyamines and aminothiols useful for treatment. The model used in this example was derived from the oral mucositis model described by Alvarez et al. (Clin. Cancer Research 9:3454-3461, 2003). Male golden Syrian hamsters (70-95 gram, Charles River Laboratories, Wilmington, Mass.) were used. Animals were individually numbered, housed in small groups and fed and watered ad libitum. Hamsters were anesthetized with sodium pentobarbital (80 mg/kg body weight, Sigma, St. Louis, Mo.). The left buccal cheek pouch was everted and secured. A protective lead shield covered the remainder of the animal. Subsequently, the cheek pouch was irradiated with a single dose of radiation from 20 to 40 Gy delivered to the targeted mucosa in the ^137Cs irradiator. Starting 10 to 12 days after radiation, the severity of mucositis was assessed every two days. The severity level of mucositis was evaluated using a modified mucositis scoring system described by Sonis S. T. et al. (Oral Oncology 36:373-381, 2000)
The scoring system was as follows: • 0=Pouch completely healthy. No erythema or vasodilatation. • 1=Erythema. • 2=Severe erythema, vasodilatation • 3=Severe erythema/vasodilatation. Superficial erosion on radiated pouch surface area. • 4=Formation of ulcers in one or more places. […]

[2] = test system: B16 melanoma tumor xenografts; test: Effect of topical drug on killing of tumor xenograft by systemic Cytoxan; type: in vivo, mouse; settings: topical dose 5-times higher than standard regimen; Cytoxan 200 ug/gm b.w. ip
[3] = test system: supercoiled pUC19 plasmid; test: Hydroxyl radical scavenging, plasmid DNA protection; type: biochemical; settings: 0-70 mM, pH 6.5; even the lowest concentration tested; UV 2.5 min
Protocol: Method: 0.3 μg pUC19 plasmid was added to a 16 μl incubation containing Tris-EDTA buffer, then either PrC-210 (0-70 mM, pH 6.5) or buffer were added to the incubation. The polypropylene microtubes were then sealed and irradiated for 2.5 min at a distance of 80 cm from a UV lamp. Samples were then applied to 1% agarose gels and electrophoresed using methods known in the art.

[4] = test system: primary, human skin fibroblasts; test: Cell cycle block in human skin fibroblasts (flow cytometry); type: cell-based
Protocol: Methods (Cell cycle and p21 western): The cell culture experiments were done using primary, human skin fibroblasts, one strain of which (BJ cells) was obtained from ATCC (American Type Culture Collection). […] For flow cytometry and p21 experiments, cells were plated at 0.5×10^6 cells/150 mm plate, and 24 hr later, drug molecules (4100 μM PrC-210, 600 μM cysteamine, 205 μM cysteamine analog, 0.4 μg/ml colcemid) were added to medium. […] (Cancer Research. 61(21):7754-62, 2001). As per the cited reference, cells were fixed, treated with RNAse, and stained with propidium iodide for flow cytometry, or cells were extracted, proteins electrophoresed, and probed with anti-p21 antibody (#SXM-30) for western blot analysis.

CNCC(CS)CNC [PrC-210, 3-methylamino-2-methylaminomethyl-propane-1-thiol]
effect on radiation-induced erythema, swelling and inflexibility of cheek pouch [1]: significant decrease in the erythema, swelling and inflexibility | effect upon killing of tumor xenografts by systemic Cytoxan chemotherapy [2]: no discernible effect | protection of supercoiled DNA from OH radical damage [3]: completely prevented damage to supercoiled DNA | time to reversion to normal cell division after wash-out ([4]; change of cell culture medium): ≤ 48 h | cell cycle block (phase) ([4]; log-phase human fibroblast cultures): in the G1 phase of the cell cycle; also recorded: G1-specific cell cycle block; also recorded: reversible G1 cell cycle block | reversibility of cell cycle block ([4]; upon washout or removal of the drug): reversible
